Measured values published in PubChem BioAssay AID1963870 (Molecular Pharmacology Branch, DTP, NCI, 2024).

Tested on: 292921-168-R-J2-PDC KRAS tumor spheroid viability
Assay: Anticancer human tumor 292921-168-R-J2-PDC patient-derived pancreatic carcinoma cell line growth inhibition [KRAS2]
Conditions: spheroids with HUVEC and MSC; for IC50: curve of first compound; for viability, T/C: stronger effect = lower value
Summary of the method: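 Combination screen of spheroid viability in tumor-cell co-cultures with endothelial (HUVEC) and mesenchymal stem cell stroma. Each agent was tested in half-log dilutions, topping at clinical Cmax or at 10 microM without a known Cmax.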

[1] = second compound 0.1 µM, first compound 0.0316 µM
[2] = second compound 0.1 µM, first compound 0.1 µM
[3] = second compound 0.316 µM, first compound 0.0316 µM
[4] = second compound 0.316 µM, first compound 0.1 µM
[5] = second compound 1 µM, first compound 0.0316 µM
[6] = second compound 1 µM, first compound 0.1 µM
[7] = second compound 3.16 µM, first compound 0.0316 µM
[8] = second compound 3.16 µM, first compound 0.1 µM
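Also: drug exposure lasted seven days after spheroids formed for three days.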
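For viability, T/C in this document: percent of DMSO vehicle control viability which is 100%.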

Cn1ncnc1[C@H]1c2n[nH]c(=O)c3cc(F)cc(c23)N[C@@H]1c1ccc(F)cc1 + COc1cc2nc(C)nc(NC(C)c3cc(N)cc(C(F)(F)F)c3)c2cc1OC1CCOC1
IC50 (second compound 0.1 µM): > 0.1 µM | IC50 (second compound 0.316 µM): > 0.1 µM | IC50 (second compound 1 µM): > 0.1 µM | IC50 (second compound 3.16 µM): 0.0373 µM | IC50 (second compound 10 µM): < 0.000316 µM | viability, T/C (second compound 0.1 µM, first compound 0.000316 µM): 93.5% | viability, T/C (second compound 0.1 µM, first compound 0.001 µM): 92.1% | viability, T/C (second compound 0.1 µM, first compound 0.00316 µM): 85.8% | viability, T/C (second compound 0.1 µM, first compound 0.01 µM): 85.7% | viability, T/C [1]: 68.6% | viability, T/C [2]: 60.5% | viability, T/C (second compound 0.316 µM, first compound 0.000316 µM): 84.2% | viability, T/C (second compound 0.316 µM, first compound 0.001 µM): 87% | viability, T/C (second compound 0.316 µM, first compound 0.00316 µM): 84.8% | viability, T/C (second compound 0.316 µM, first compound 0.01 µM): 84.4% | viability, T/C [3]: 70.3% | viability, T/C [4]: 64.3% | viability, T/C (second compound 1 µM, first compound 0.000316 µM): 84% | viability, T/C (second compound 1 µM, first compound 0.001 µM): 84.9% | viability, T/C (second compound 1 µM, first compound 0.00316 µM): 74.9% | viability, T/C (second compound 1 µM, first compound 0.01 µM): 73.3% | viability, T/C [5]: 69.6% | viability, T/C [6]: 57.4% | viability, T/C (second compound 3.16 µM, first compound 0.000316 µM): 63.5% | viability, T/C (second compound 3.16 µM, first compound 0.001 µM): 60.1% | viability, T/C (second compound 3.16 µM, first compound 0.00316 µM): 56.4% | viability, T/C (second compound 3.16 µM, first compound 0.01 µM): 57.7% | viability, T/C [7]: 52.1% | viability, T/C [8]: 42% | viability, T/C (second compound 10 µM, first compound 0.000316 µM): 26.1% | viability, T/C (second compound 10 µM, first compound 0.001 µM): 27.6% | viability, T/C (second compound 10 µM, first compound 0.00316 µM): 30.6% | viability, T/C (second compound 10 µM, first compound 0.01 µM): 22.6% | viability, T/C (second compound 10 µM, first compound 0.0316 µM): 23.6% | viability, T/C (second compound 10 µM, first compound 0.1 µM): 23.9%

Cn1nccc1Nc1nccc(-c2cc3c(s2)C(C)(C)N(CCN2CCOCC2)C3=O)n1 + C=CC(=O)N1CCN(c2nc(OCC3CCCN3C)nc3c2CCN(c2cccc4cccc(C)c24)C3)CC1CC#N
IC50 (second compound 0.0316 µM): 0.0931 µM | IC50 (second compound 0.1 µM): 0.0778 µM | IC50 (second compound 0.316 µM): 0.059 µM | IC50 (second compound 1 µM): < 0.0316 µM | IC50 (second compound 3.16 µM): < 0.0316 µM | viability, T/C (second compound 0.0316 µM, first compound 0.0316 µM): 86.7% | viability, T/C (second compound 0.0316 µM, first compound 0.1 µM): 47.5% | viability, T/C (second compound 0.0316 µM, first compound 0.316 µM): 20.6% | viability, T/C (second compound 0.0316 µM, first compound 1 µM): 13% | viability, T/C (second compound 0.0316 µM, first compound 3.16 µM): 11.6% | viability, T/C (second compound 0.0316 µM, first compound 10 µM): 11.9% | viability, T/C [1]: 80.2% | viability, T/C [2]: 41.4% | viability, T/C (second compound 0.1 µM, first compound 0.316 µM): 21.6% | viability, T/C (second compound 0.1 µM, first compound 1 µM): 12.5% | viability, T/C (second compound 0.1 µM, first compound 3.16 µM): 11.1% | viability, T/C (second compound 0.1 µM, first compound 10 µM): 11.6% | viability, T/C [3]: 63.5% | viability, T/C [4]: 38.6% | viability, T/C (second compound 0.316 µM, first compound 0.316 µM): 16.2% | viability, T/C (second compound 0.316 µM, first compound 1 µM): 12.2% | viability, T/C (second compound 0.316 µM, first compound 3.16 µM): 9.88% | viability, T/C (second compound 0.316 µM, first compound 10 µM): 11.9% | viability, T/C [5]: 30.9% | viability, T/C [6]: 18.4% | viability, T/C (second compound 1 µM, first compound 0.316 µM): 8.49% | viability, T/C (second compound 1 µM, first compound 1 µM): 8.54% | viability, T/C (second compound 1 µM, first compound 3.16 µM): 7.25% | viability, T/C (second compound 1 µM, first compound 10 µM): 8.46% | viability, T/C [7]: 0.45% | viability, T/C [8]: 0.11% | viability, T/C (second compound 3.16 µM, first compound 0.316 µM): 0.11% | viability, T/C (second compound 3.16 µM, first compound 1 µM): 0.1% | viability, T/C (second compound 3.16 µM, first compound 3.16 µM): 0.1% | viability, T/C (second compound 3.16 µM, first compound 10 µM): 0.16%
